Source: ChEMBL document CHEMBL3784965, “Discovery of (R)-6-(1-(8-Fluoro-6-(1-methyl-1H-pyrazol-4-yl)-[1,2,4]triazolo[4,3-a]pyridin-3-yl)ethyl)-3-(2-methoxyethoxy)-1,6-naphthyridin-5(6H)-one (AMG 337), a Potent and Selective Inhibitor of MET with High Unbound Target Coverage and Robust In Vivo Antitumor Activity” (J Med Chem, 2016)
Converted amounts (≈) assume the structure as drawn.

What was measured:
[1] = Solubility of compound in 0.01 N HCl; type: physicochemical
CYP3A4 = CYP3A4 (Homo sapiens, UniProt P08684); assay: (§1) Inhibition of CYP3A4 (unknown origin) in presence of NADPH; type: ADME
[2] = Half life in Sprague-Dawley rat; type: ADME, organism-based; settings: in vivo
Rattus norvegicus = species: Rattus norvegicus; assay: Unbound clearance in Sprague-Dawley rat at 5 ug/ml by equilibrium dialysis method; type: ADME, organism-based; settings: in vivo
[3] = Clearance in Sprague-Dawley rat at 0.25 mg/kg, iv; type: ADME, organism-based; settings: in vivo
Mus musculus [4] = assay: In vivo inhibition of HGF-induced phosphorylation of MET in Balb/c mouse liver assessed as time required for >90% inhibition at 30 mg/kg administered via oral gavage; type: functional
[5] = Solubility of compound in PBS; type: physicochemical
[6] = Solubility of compound in SIF; type: physicochemical
Plasma [7] = assay: Unbound plasma concentration in Balb/c mouse at 30 mg/kg, administered via oral gavage measured at 6 hrs; type: ADME, organism-based; settings: in vivo
[8] = Oral bioavailability in Sprague-Dawley rat at 2 mg/kg; type: ADME, organism-based; settings: in vivo
[9] = Volume of distribution at steady state in Sprague-Dawley rat; type: ADME, organism-based; settings: in vivo, read-out: Vdss
Mus musculus [10] = assay: In vivo inhibition of HGF-induced phosphorylation of MET in Balb/c mouse liver assessed as phosphorylated cMET level at 10 mg/kg administered via oral gavage followed by HGF injection 6 hrs post dose by electrochemiluminescence immunoassay relative to control; type: functional; set-up: scale not given: the % may be the effect or the level left
Canis familiaris = species: Canis familiaris; assay: Unbound clearance in Beagle dog at 5 ug/ml by equilibrium dialysis method; type: ADME, organism-based, Canis lupus familiaris; settings: in vivo
Mus musculus [11] = assay: (§2) Antitumor activity against mouse NIH-3T3/TPR-Met cells xenografted in CD1 mouse assessed as tumor growth inhibition administered as oral gavage, qd over 22 days; type: functional
[12] = as §2; type: functional; settings: NIH3T3, po, 528 h
[13] = Fraction unbound in Sprague-Dawley rat plasma at 5 ug/ml by equilibrium dialysis method; type: ADME, cell-free
[14] = Oral bioavailability in Beagle dog at 30 mg/kg; type: ADME, organism-based, Canis lupus familiaris; settings: in vivo
Mus musculus [15] = assay: Toxicity in CD1 mouse xenografted with mouse NIH-3T3/TPR-Met cells assessed as effect on body weight at 0.1 to 10 mg/kg, qd administered as oral gavage over 22 days; type: organism-based; settings: in vivo, 528 h
Mus musculus [16] = assay: In vivo inhibition of HGF-induced phosphorylation of MET in Balb/c mouse liver assessed as phosphorylated cMET level at 10 mg/kg administered via oral gavage followed by HGF injection 3 hrs post dose by electrochemiluminescence immunoassay relative to control; type: functional; set-up: scale not given: the % may be the effect or the level left
[17] = Fraction unbound in human plasma at 5 ug/ml by equilibrium dialysis method; type: ADME, cell-free
Mus musculus [18] = assay: In vivo inhibition of HGF-induced phosphorylation of MET in Balb/c mouse liver assessed as phosphorylated cMET level at 10 mg/kg administered via oral gavage followed by HGF injection 24 hrs post dose by electrochemiluminescence immunoassay relative to control; type: functional; set-up: scale not given: the % may be the effect or the level left
[19] = Oral bioavailability in Beagle dog at 10 mg/kg; type: ADME, organism-based, Canis lupus familiaris; settings: in vivo
[20] = Intrinsic clearance in mouse liver microsomes; type: ADME; settings: read-out: CLH
[21] = Intrinsic clearance in human liver microsomes; type: ADME; settings: read-out: CLH
[22] = Half life in iv dosed Beagle dog; type: ADME, organism-based, Canis lupus familiaris; settings: in vivo
Mus musculus [23] = assay: In vivo inhibition of HGF-induced phosphorylation of MET in Balb/c mouse liver assessed as phosphorylated cMET level at 10 mg/kg administered via oral gavage followed by HGF injection 1 hr post dose by electrochemiluminescence immunoassay relative to control; type: functional; set-up: scale not given: the % may be the effect or the level left
[24] = Clearance in Beagle dog at 0.713 mg/kg, iv; type: ADME, organism-based, Canis lupus familiaris; settings: in vivo
[25] = Volume of distribution at steady state in iv dosed Beagle dog; type: ADME, organism-based, Canis lupus familiaris; settings: in vivo, read-out: Vdss
Mus musculus [26] = assay: In vivo inhibition of HGF-induced phosphorylation of MET in Balb/c mouse liver assessed as phosphorylated cMET level at 10 mg/kg administered via oral gavage followed by HGF injection 12 hrs post dose by electrochemiluminescence immunoassay relative to control; type: functional; set-up: scale not given: the % may be the effect or the level left
[27] = Fraction unbound in mouse plasma at 5 ug/ml by equilibrium dialysis method; type: ADME, cell-free
Mus musculus [28] = assay: In vivo inhibition of HGF-induced phosphorylation of MET in Balb/c mouse liver assessed as phosphorylated cMET level at 10 mg/kg administered via oral gavage followed by HGF injection 9 hrs post dose by electrochemiluminescence immunoassay relative to control; type: functional; set-up: scale not given: the % may be the effect or the level left
[29] = Intrinsic clearance in rat liver microsomes; type: ADME; settings: read-out: CLH
[30] = AUC(0 to infinity) in Beagle dog at 10 mg/kg,po; type: ADME, organism-based, Canis lupus familiaris; set-up: dose 10 mg/kg, route oral, time infinity; settings: in vivo
[31] = AUC(0 to infinity) in Beagle dog at 30 mg/kg, po; type: ADME, organism-based, Canis lupus familiaris; set-up: dose 30 mg/kg, time infinity, route oral; settings: in vivo
Cytochrome P450 3A4 [32] = target: T1, Cytochrome P450 3A4 (Homo sapiens, UniProt P08684); assay: as §1; type: ADME
Cytochrome P450 3A4 [33] = target: T1, Cytochrome P450 3A4; assay: Inhibition of CYP3A4 (unknown origin) in absence of NADPH; type: ADME
Mus musculus [34] = assay: In vivo inhibition of HGF-induced phosphorylation of MET in Balb/c mouse liver assessed as time required for >90% inhibition at 10 mg/kg administered via oral gavage; type: functional
Plasma [35] = assay: Unbound plasma concentration in Balb/c mouse at 10 mg/kg, administered via oral gavage measured at 12 hrs; type: ADME, organism-based; settings: in vivo
[36] = target: Hepatocyte growth factor receptor (Homo sapiens, UniProt P08581)
Description: Inhibition of HGF-mediated MET autophosphorylation in human PC3 cells preincubated for 1 hr followed by stimulation with human HGF measured after 10 mins by electrochemiluminescence immunoassay

[37] = Clearance in Sprague-Dawley rat at 0.3 mg/kg, iv; type: ADME, organism-based; settings: in vivo
Plasma [38] = assay: Unbound plasma concentration in Balb/c mouse at 10 mg/kg, administered via oral gavage measured at 6 hrs; type: ADME, organism-based; settings: in vivo

Structure (SMILES)	solubility [1] [µg/mL]	half-life [2] [min]	CL free (Rattus norvegicus) [L/h/kg]	clearance [3] [mL/min/kg]	solubility [5] [µg/mL]	solubility [6] [µg/mL]	bioavailability [8] [%]	Vd [9] [L/kg]	fraction unbound at 5 ug/ml [13]	fraction unbound at 5 ug/ml [17]	microsomal CLint [20] [µL/min/mg]	microsomal CLint [21] [µL/min/mg]	fraction unbound at 5 ug/ml [27]	microsomal CLint [29] [µL/min/mg]	also measured
COc1cnc2c(NCc3nnc4ccc(-c5cc(C)ns5)nn34)ccnc2c1	> 200	108	26	3.17	3 (≈ 7.42 µM)	13 (≈ 32.1 µM)									IC50 (CYP3A4): > 50 µM; Time (Mus musculus [4]): 6 h; Cp(f) (Plasma [7]): 9 nM
COCCOc1cnc2ccn([C@H](C)c3nnc4c(F)cc(-c5cnn(C)c5)cn34)c(=O)c2c1 [AMG-337]		180	1.6	4.5			30	0.9	0.174	0.419	8	9	0.366	6	Activity (Mus musculus [10]): 98%; CL free (Canis familiaris): 0.46 L/h/kg; Activity (Mus musculus [11]): Dose-dependent effect; ED50 [12]: 0.3 mg/kg; ED90 [12]: 0.8 mg/kg; bioavailability [14]: 64%; Activity (Mus musculus [15]): Non-toxic; Activity (Mus musculus [16]): 98%; Activity (Mus musculus [18]): 51%; bioavailability [19]: 49%; half-life [22]: 354 min; Activity (Mus musculus [23]): 101%; clearance [24]: 3.83 mL/min/kg; Vd [25]: 1.1 L/kg; Activity (Mus musculus [26]): 92%; Activity (Mus musculus [28]): 92%; AUC(0-inf) [30]: 21000 ng·h/mL; AUC(0-inf) [31]: 82600 ng·h/mL
COCCOc1cnc2ccc([C@H](C)n3nnc4ccn(-c5cc(C)ns5)c(=O)c43)cc2c1		204	31		9 (≈ 19.5 µM)										IC50 (Cytochrome P450 3A4 [32]): 21 µM; IC50 (Cytochrome P450 3A4 [33]): 21 µM; Time (Mus musculus [34]): 12 h; Cp(f) (Plasma [35]): 20 nM
COc1cnc2ccn([C@H](C)c3nnc4c(F)cc(-c5cnn(C)c5)cn34)c(=O)c2c1		216	0.9	2			43	0.5	0.139	0.309	7	< 5	0.353	12	
COCCOc1cnc2ccn([C@H](C)c3nnc4c(F)cc(-c5cc(C)no5)cn34)c(=O)c2c1		174	2.4	3.33			54	0.7	0.08	0.409	14	20	0.317	16	Activity (Mus musculus [10]): 99%; Activity (Mus musculus [16]): 100%; Activity (Mus musculus [18]): 28%; Activity (Mus musculus [23]): 101%; Activity (Mus musculus [26]): 51%; Activity (Mus musculus [28]): 99%
COc1ccc2c(OCc3nnc4ccc(-c5cc(F)c(F)c(F)c5)nn34)ccnc2c1	85 (≈ 194 µM)	210	58		4 (≈ 9.15 µM)	17 (≈ 38.9 µM)									IC50 [36]: 8 nM; clearance [37]: 1 mL/min/kg; Time (Mus musculus [4]): 6 h; Cp(f) (Plasma [7]): 34 nM
COCCOc1cnc2ccc([C@H](C)c3nnc4c(F)cc(-c5cc(C)no5)cn34)cc2c1	> 200	252	26		52 (≈ 116 µM)	126 (≈ 282 µM)									IC50 (Cytochrome P450 3A4 [32]): > 50 µM; IC50 (Cytochrome P450 3A4 [33]): > 50 µM; Time (Mus musculus [34]): 6 h; Cp(f) (Plasma [38]): 141 nM
